Where a name gives a salt, the structure may show the parent alone.
Legend:
[1] = Stability test of J1 solution (HPLC), Example 6; format: physicochemical
Procedure: Stability of the solution containing J1 and tert-butanol:water, 1:1 (v/v), was tested. A solution comprising tert-butanol:water 1:1 (v/v) and J1 at a concentration of 1 mg/ml, was left at room temperature for 5 days.

[2] = Dissolution rate of lyophilized J1/sucrose in 5% glucose solution (Example 1); format: physicochemical; conditions: lyophilized 0.1 mg J1 and 0.2 mg sucrose, 0.5 ml 5% glucose solution
Procedure: The speed of dissolution of melphalan flufenamide hydrochloride (J1) by addition of sucrose to the freeze-drying process of J1 was tested. Sucrose is a formulation agent Generally Considered As Safe (GRAS) according to the FDA (US Food and Drug Administration).
A solution of J1 (5 mg) was made in tert-butanol:water 1:1 (5 ml). 100 μl of the solution was added to a vial containing 0.2 mg sucrose. The vial was covered with aluminium foil and frozen on dry ice-acetone. The vial consisted of 0.1 mg J1 and 0.2 mg sucrose. The vial with sample was thereafter freeze-dried overnight. Freeze-drying was performed on a Leybold Lyovac GT2 equipment.
A 5% glucose solution (100 ml) was prepared and the internal marker 3-methoxy-benzoic acid (0.8 mg/ml) was added to the solution.
0.5 ml of the glucose solution from step 2, was added to the freeze-dried vial with J1 sample from step 1. The vial was shaken at room temperature for 15 seconds and thereafter filtered and transferred to a glass vial for J1 concentration measurement, with HPLC. The amount of dissolved J1 was determined using HPLC and a calibration curve.

[3] = Stability of previous preparation in DMA in a glucose solution; format: physicochemical; conditions: dissolved in DMA (dimethylacetamide) in a glucose solution
Source text: In previous preparations, melphalan flufenamide was obtained from synthesis as a white powder in crystalline form. This crystalline form can only be dissolved in highly acidic aqueous solutions, which for practical manufacturing purposes is impossible. […] Therefore, previously melphalan flufenamide was instead dissolved in DMA (dimethylacetamide) in a glucose solution. The preparation is feasible but is unstable: 7% degradation/h. Furthermore, dimerization occurs and the solution turns bright yellow. This preparation was, however, unreliable and the polymerization rate varied in an unacceptable manner.

[4] = test system: tumors; conditions: even at lower concentrations than melphalan; cited from earlier work
[5] = tert-butanol:water 1:1 (v/v), 1 mg/ml, room temperature, 5 days

CCOC(=O)[C@H](Cc1ccc(F)cc1)NC(=O)[C@@H](N)Cc1ccc(N(CCCl)CCCl)cc1 [Sample J1, melphalanyl-L-p-fluorophenylalanine ethyl ester hydrochloride]
degradation compared with tert-butanol:water solution ([1]; J1 dissolved in an acidic ethanol-water solution): much more rapid | amount of J1 by HPLC signal after 5 days [1, 5]: 85.5% | decrease of J1 HPLC signal [1, 5]: 11.7% | amount of J1 by HPLC signal, initial ([1]; tert-butanol:water 1:1 (v/v), 1 mg/ml, room temperature, start): 97.2% | % of J1 dissolved in 15 seconds ([2]; room temperature): approximately 40% | concentration of J1 dissolved in the glucose solution during 15 seconds ([2]; shaken at room temperature 15 seconds): 0.08 mg/mL

CCOC(=O)[C@H](Cc1ccc(F)cc1)NC(=O)[C@@H](N)Cc1ccc(N(CCCl)CCCl)cc1 [melphalan flufenamide, melphalanyl-L-p-fluorophenylalanine ethyl ester]
degradation [3]: 7 % degradation/h | cell killing activity against tumors [4]: increased cell killing activity
